According to US20030158250A1, “Agents correcting gene expression regulatory error” (priority 2000, published 2003):

How the values were obtained:
Assay type in all cases: cell-based
[1] = system: growth regulated protein-1 (Gro1); test: RT-PCR expression level of Gro1 gene in monocytes; conditions: human monocytes, 30 PCR cycles
Method: (§1) Four-hundred milliliters of blood was collected from a human normal individual donor. The collected blood was diluted 2-folds with PBS(−), overlaid on Ficoll-paque (manufactured by Pharmacia), and centrifuged at 500×g for 20 minutes. The peripheral blood mononuclear cells (PBMCs) in the intermediate layer was collected with a pipette, and washed with RPMI 1640 medium (manufactured by Bio Whittaker). The collected PBMCs was suspended in a storage solution of 90% FCS (manufactured by JRH Biosciences)/10% dimethyl sulfoxide, and stored in liquid nitrogen. During the experiment, these stored PBMCs were rapidly melted in water bath at 37° C., and washed with RPMI 1640 medium containing 10 μg/ml Dnase (manufactured by Calbiochem). Thereafter, the number of living cells was calculated by trypan blue staining method, and subjected to each experiment.
(§2) PBMCs were suspended in RPMI 1640 medium containing 5% human serum of blood type-AB, 0.1 mM nonessential amino acid, 1 mM sodium pyruvate, 2 mM L-glutamine (hereinabove manufactured by Bio Whittaker), 10 mM HEPES (manufactured by nakalai tesque), and 1% streptomycin-penicillin (manufactured by Gibco BRL) (hereinafter simply referred to as “5HRPMI medium”) so as to have a concentration of 4×10^6 cells/ml. Thereafter, the suspension was spread on a 6-well cell culture plate (manufactured by Falcon) in a volume of 3 ml/well, and the cells were incubated in a wet-type incubator at 37° C. and 5% CO2 for 1.5 hours. After 1.5 hours, the non-adherent cells were removed by suction, and each well was washed with RPMI 1640 medium, and 2 ml of the 5HRPMI medium was added to the wells, to give monocytes.
(§3) To the monocytes obtained above was added in each well 8 μl of an aqueous DGE solution, or 8 μl of water as a control, and the cells were incubated in a wet-type incubator at 37° C. and 5% CO2 for 5 hours. Thereafter, with addition of 2 μl of a 1 μg/ml aqueous LPS solution or 2 μl of a 25 μM TPA dimethyl sulfoxide solution to each well, or with addition of neither of these substances thereto, the cells were cultured for additional 4 hours. Thereafter, RNA was prepared from each cell in accordance with the description of the kit using RNeasy Mini Kit (manufactured by QIAGEN, 74104). The group with addition of water alone or the aqueous DGE solution alone to the cells was set as a negative control, and the group with addition of water and the aqueous LPS solution or the aqueous TPA solution to the cells was set as a positive control.
(§4) A liquid mixture having a total volume of 60 μl of 0.5 μg of RNA prepared above, 10 mM Tris-HCl (pH 8.3), 50 mM KCl, 5 mM MgCl2, 1 mM dNTP mixtures, 150 pmol of Random 6 mers, 60 U Ribonuclease Inhibitor (manufactured by Takara Shuzo Co., Ltd., 2310A), and 15 U Reverse Transcriptase XL (AMV) (manufactured by Takara Shuzo Co., Ltd., 2620A) were incubated at 30° C. for 10 minutes and thereafter at 42° C. for 1 hour using a thermal cycler (GeneAmp PCR System 9600, manufactured by Applied Biosystems), and the mixture was heated at 99° C. for 5 minutes to deactivate the enzyme, to give cDNA.
(§5) Oligonucleotide primers for reaction of PCR were designed based on mRNA nucleotide sequence of each gene listed in the following tables, and synthesized in the same manner as above. In Tables 4 and 5, each gene evaluated in this Example, GenBank Accession NO, the name of oligonucleotide primers and SEQ ID NOs of the primers in Sequence Listing were listed. […]

[2] = system: properdin P factor, complement (PFC); test: RT-PCR expression level of PFC gene in monocytes; conditions: human monocytes, 35 PCR cycles
Method: as §1, §2, §3, §4, §5

[3] = system: COX2 mRNA; test: RT-PCR of COX2 mRNA in monocytes; conditions: human monocytes; for amplification of band ascribed to COX2 mRNA, stimulant alone: LPS or TPA alone, 4 hours, RT-PCR
Method: as §1, §2
as §3, with “control. […]” for “control.”

[4] = system: matrix metalloproteinase-9 (MMP-9); test: RT-PCR expression level of MMP-9 gene in monocytes; conditions: human monocytes, 30 PCR cycles
Method: as §1, §2, §3, §4, §5

[5] = system: tumor necrosis factor α (TNFα); test: RT-PCR expression level of TNFα gene in monocytes; conditions: human monocytes, 30 PCR cycles
Method: as §1, §2, §3, §4, §5

[6] = system: macrophage inflammatory protein-2-β (MIP2β); test: RT-PCR expression level of MIP2β gene in monocytes; conditions: human monocytes, 30 PCR cycles
Method: as §1, §2, §3, §4, §5

[7] = system: interleukin-7 receptor (IL-7r); test: RT-PCR expression level of IL-7r gene in monocytes; conditions: human monocytes, 30 PCR cycles
Method: as §1, §2, §3, §4, §5

[8] = system: SCO (cytochrome oxidase deficient, yeast) homolog-2 (SCO2); test: RT-PCR expression level of SCO2 gene in monocytes; conditions: human monocytes, 30 PCR cycles
Method: as §1, §2, §3, §4, §5

[9] = system: myeloid leukemia cell differentiation protein-1 (MCL1); test: RT-PCR expression level of MCL1 gene in monocytes; conditions: human monocytes, 30 PCR cycles
Method: as §1, §2, §3, §4, §5

[10] = system: migration inhibitory factor-related protein-8 (MRP8); test: RT-PCR expression level of MRP8 gene in monocytes; conditions: human monocytes, 30 PCR cycles
Method: as §1, §2, §3, §4, §5

[11] = substance added alone, Con. (water) +
[12] = substance added alone, Con. (water) −
[13] = substance added alone, Con. (water) +/−
[14] = T + D: DGE and TPA, TPA alone ++
[15] = L + D: DGE and LPS, LPS alone −
[16] = T + D: DGE and TPA, TPA alone +
[17] = L + D: DGE and LPS, LPS alone ++
[18] = L + D: DGE and LPS, LPS alone +/−

12-o-tetradecanoylphorbol 13-acetate [TPA, reference compound]
expression level of Gro1 gene [1, 11]: ++
expression level of PFC gene [2, 11]: +
amplification of band ascribed to COX2 mRNA, stimulant alone [3]: induction
expression level of MMP-9 gene [4, 12]: +
expression level of TNFα gene [5, 13]: +
expression level of MIP2β gene [6, 11]: ++
expression level of IL-7r gene [7, 13]: −
expression level of SCO2 gene [8, 11]: +
expression level of MCL1 gene [9, 11]: +
expression level of MRP8 gene [10, 11]: +/−

O=C1C=CC(CO)OC1O [DGE, L-glycero-1,5-epoxy-1αβ,6-dihydroxy-cis-hex-3-en-2-one]
expression level of Gro1 gene ([1]; L + D: DGE and LPS, LPS alone +++): +
expression level of Gro1 gene [1, 14]: +
expression level of Gro1 gene [1, 11]: +
expression level of PFC gene [2, 15]: +
expression level of PFC gene [2, 16]: +
expression level of PFC gene [2, 11]: +
induction of COX2 mRNA by LPS, effect of DGE ([3]; DGE 5 hours, then LPS 4 hours, RT-PCR band): inhibited
induction of COX2 mRNA by TPA, effect of DGE ([3]; DGE 5 hours, then TPA 4 hours, RT-PCR band): inhibited
expression level of MMP-9 gene [4, 15]: −
expression level of MMP-9 gene [4, 16]: −
expression level of MMP-9 gene [4, 12]: −
expression level of TNFα gene [5, 17]: +/−
expression level of TNFα gene [5, 16]: +/−
expression level of TNFα gene [5, 13]: −
expression level of MIP2β gene [6, 17]: +
expression level of MIP2β gene [6, 14]: +
expression level of MIP2β gene [6, 11]: +
expression level of IL-7r gene [7, 17]: −
expression level of IL-7r gene ([7]; T + D: DGE and TPA, TPA alone −): −
expression level of IL-7r gene [7, 13]: −
expression level of SCO2 gene [8, 15]: +
expression level of SCO2 gene [8, 16]: +
expression level of SCO2 gene [8, 11]: +
expression level of MCL1 gene [9, 18]: +
expression level of MCL1 gene [9, 16]: +
expression level of MCL1 gene [9, 11]: +
expression level of MRP8 gene [10, 18]: +
expression level of MRP8 gene ([10]; T + D: DGE and TPA, TPA alone +/−): +
expression level of MRP8 gene [10, 11]: +

lipopolysaccharide [LPS, reference compound]
expression level of Gro1 gene [1, 11]: +++
expression level of PFC gene [2, 11]: −
amplification of band ascribed to COX2 mRNA, stimulant alone [3]: induction
expression level of MMP-9 gene [4, 12]: −
expression level of TNFα gene [5, 13]: ++
expression level of MIP2β gene [6, 11]: ++
expression level of IL-7r gene [7, 13]: ++
expression level of SCO2 gene [8, 11]: −
expression level of MCL1 gene [9, 11]: +/−
expression level of MRP8 gene [10, 11]: +/−
